Laboratory results: ChEMBL document CHEMBL1255210, “Discovery of pyrrolopyridazines as novel DGAT1 inhibitors” (Bioorg Med Chem Lett, 2010)

Assays:
[1] = target: T1, Diacylglycerol O-acyltransferase 1 (Homo sapiens, UniProt O75907); experiment: Inhibition of human liver flag-tagged DGAT1 expressed in baculovirus infected insect cells after 2 hrs
T1 sequence (O75907 whole entry): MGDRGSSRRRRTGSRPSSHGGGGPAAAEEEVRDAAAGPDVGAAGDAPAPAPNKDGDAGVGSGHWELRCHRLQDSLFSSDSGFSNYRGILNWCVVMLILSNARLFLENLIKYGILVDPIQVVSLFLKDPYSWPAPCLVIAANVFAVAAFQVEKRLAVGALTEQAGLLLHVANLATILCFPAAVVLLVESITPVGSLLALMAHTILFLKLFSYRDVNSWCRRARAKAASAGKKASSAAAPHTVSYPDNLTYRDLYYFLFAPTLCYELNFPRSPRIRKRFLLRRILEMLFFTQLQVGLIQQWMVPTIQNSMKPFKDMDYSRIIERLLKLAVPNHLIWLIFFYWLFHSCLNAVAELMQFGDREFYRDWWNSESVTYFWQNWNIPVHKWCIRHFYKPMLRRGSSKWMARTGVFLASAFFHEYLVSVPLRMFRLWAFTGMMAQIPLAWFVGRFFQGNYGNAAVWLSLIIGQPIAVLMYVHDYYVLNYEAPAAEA

[2] = target: T2, Sterol O-acyltransferase 1 (Homo sapiens, UniProt P35610); experiment: Inhibition of human full-length flag-tagged ACAT1 expressed in baculovirus infected insect cells after 10 mins
T2 sequence (P35610 whole entry): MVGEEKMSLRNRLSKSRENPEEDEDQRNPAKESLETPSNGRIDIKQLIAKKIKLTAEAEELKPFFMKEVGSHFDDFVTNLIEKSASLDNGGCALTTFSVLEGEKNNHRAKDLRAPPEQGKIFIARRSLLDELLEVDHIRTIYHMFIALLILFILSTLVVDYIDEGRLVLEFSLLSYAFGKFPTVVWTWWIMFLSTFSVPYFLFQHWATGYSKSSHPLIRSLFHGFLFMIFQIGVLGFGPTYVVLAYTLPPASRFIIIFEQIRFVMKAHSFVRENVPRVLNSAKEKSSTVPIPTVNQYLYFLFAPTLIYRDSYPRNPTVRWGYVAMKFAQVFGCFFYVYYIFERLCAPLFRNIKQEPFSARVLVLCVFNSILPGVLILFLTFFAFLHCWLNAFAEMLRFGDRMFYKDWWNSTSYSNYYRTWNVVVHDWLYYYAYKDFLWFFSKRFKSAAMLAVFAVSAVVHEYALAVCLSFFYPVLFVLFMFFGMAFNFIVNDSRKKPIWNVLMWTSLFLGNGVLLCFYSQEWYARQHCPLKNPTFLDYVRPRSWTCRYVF

[3] = target: T1, Diacylglycerol O-acyltransferase 1; experiment: Inhibition of DGAT1 in human Caco-2 cells after 30 mins; type: cell-based

SMILES	IC50 [1] [µM]	IC50 [2] [µM]	IC50 [3] [µM]
CCCCc1c(C(=O)OCC)c(C(=O)OCC)c2c(-c3ccccc3)cc(N3CCOCC3)nn12	0.16	< 0.3	–
CCOC(=O)c1c(C(=O)OCC)c2c(-c3ccccc3)cc(N3CCOCC3)nn2c1COC	0.24	8.75	–
CCCc1c(-c2nc(CC)no2)c(C(=O)OCC)c2c(-c3ccccc3)cc(N3CCOCC3)nn12	0.11	< 1	–
CCCc1c(C(=O)OCC)c(C(=O)OCC)c2c(-c3ccccc3)cc(N3CCC3)nn12	1.36	1.49	–
CCOC(=O)c1cn2nc(N3CCOCC3)cc(-c3ccccc3)c2c1C(=O)OCC	> 3	–	–
CCCc1c(C(=O)OCC)c(C(=O)OCC)c2c(C3CCCC3)cc(N3CCOCC3)nn12	> 3	–	–
CCCc1c(-c2nc(CCO)no2)c(C(=O)OCC)c2c(-c3ccccc3)cc(N3CCOCC3)nn12	0.18	1.05	0.26
CCCc1c(C(=O)OCC)c(C(=O)OCC)c2c(-c3ccccc3)cc(N3CCOCC3)nn12	0.12	1.3	–
CCCc1cc(N2CCOCC2)nn2c(CCC)c(C(=O)OCC)c(C(=O)OCC)c12	> 3	–	–
CCOC(=O)c1c(C(=O)OCC)c2c(-c3ccccc3)cc(N3CCOCC3)nn2c1-c1ccc(-c2ccccc2)cc1	0.25	< 0.3	–
CCOC(=O)c1c(C(=O)OCC)c2c(-c3ccccc3)cc(N3CCOCC3)nn2c1-c1ccc(OCc2ccccc2)cc1	0.06	< 0.1	–
CCCc1c(-c2nc(-c3ccccc3)no2)c(C(=O)OCC)c2c(-c3ccccc3)cc(N3CCOCC3)nn12	0.18	1.59	0.2
CCCc1c(C(=O)OCC)c(C(=O)OCC)c2c(C3CCC3)cc(N3CCOCC3)nn12	> 3	–	–
C=CCc1c(C(=O)OCC)c(C(=O)OCC)c2c(-c3ccccc3)cc(N3CCOCC3)nn12	0.075	1.4	–
CCCc1c(-c2nc(C(C)C)no2)c(C(=O)OCC)c2c(-c3ccccc3)cc(N3CCOCC3)nn12	0.057	< 1	0.051
CCOC(=O)c1c(C(=O)OCC)c2c(-c3ccccc3)cc(N3CCOCC3)nn2c1CC	0.24	2.17	–

SMILES	IC50 [1] [µM]	IC50 [2] [µM]	IC50 [3] [µM]
CCCc1noc(-c2c(C(=O)OCC)c3c(-c4ccccc4)cc(N4CCOCC4)nn3c2CCC)n1	0.065	0.26	–
CCCc1c(C(=O)OCC)c(C(=O)OCC)c2c(C(C)(C)C)cc(N3CCOCC3)nn12	> 3	–	–
CCCCCc1noc(-c2c(C(=O)OCC)c3c(-c4ccccc4)cc(N4CCOCC4)nn3c2CCC)n1	0.11	< 1	–
CCOC(=O)c1c(C(=O)OCC)c2c(-c3ccccc3)cc(N3CCOCC3)nn2c1CCCN(C)C	> 1	–	–
CCCc1c(C(=O)OCC)c(C(=O)OCC)c2c(-c3ccccc3)cc(N3CCCC3)nn12	0.12	1.3	–
CCCCc1noc(-c2c(C(=O)OCC)c3c(-c4ccccc4)cc(N4CCOCC4)nn3c2CCC)n1	0.073	< 1	0.069
CCOC(=O)c1c(C(=O)OCC)c2c(-c3ccccc3)cc(N3CCOCC3)nn2c1CCCO	> 1	–	–
CCOC(=O)c1c(C(=O)OCC)c2c(-c3ccccc3)cc(N3CCOCC3)nn2c1-c1ccc(O)cc1	0.57	1.29	–
CCOC(=O)c1c(C(=O)OCC)c2c(-c3ccccc3)cc(N3CCOCC3)nn2c1C1CC1	0.62	3.25	–
CCOC(=O)c1c(C(=O)OCC)c2c(-c3ccccc3)cc(N3CCOCC3)nn2c1-c1ccc(N)cc1	0.63	1.05	–
CCCc1c(C(=O)OCC)c(C(=O)OCC)c2c(C3CCCCC3)cc(N3CCOCC3)nn12	> 3	–	–
CCOC(=O)c1c(C(=O)OCC)c2c(-c3ccccc3)cc(N3CCOCC3)nn2c1CCCOC	0.27	2.56	–
CCOC(=O)c1c(C(=O)OCC)c2c(-c3ccccc3)cc(N3CCOCC3)nn2c1C	0.52	2.59	–
CCCc1c(C(=O)OCC)c(C(=O)OCC)c2c(-c3ccccc3)cc(N3C[C@@H](C)O[C@@H](C)C3)nn12	> 3	–	–
CCCc1c(C(=O)OCC)c(C(=O)OCC)c2c(-c3ccccc3F)cc(N3CCOCC3)nn12	0.57	1.49	–
